Data reported in patent US20250197351A1, “C4-CARBOXYLIC ACID-S[…] DERIVATIVES AND METHODS OF USING” (priority 2022, published 2025).
Values joined by “and” are separate entries in the source; they are usually repeats but may differ in a detail not shown here. Equal values may be shown once.

Experiments:
5-HT1A receptor = molecular target: T1, 5-HT1A receptor (Homo sapiens, UniProt P08908); test: cAMP-Glo assay of 5-HT1A receptor modulation, CHO-K1/5-HT1A/Ga15 (+5-HT1A) vs CHO-K1/Ga15 (−5-HT1A) cells; format: cell-based; conditions: +5-HT1A vs −5-HT1A CHO-K1 cells; 4 μM forskolin; increasing ligand concentration
T1 construct: host or cells: CHO-K1 (co-expressing Ga15)
T1 sequence (P08908 1-422): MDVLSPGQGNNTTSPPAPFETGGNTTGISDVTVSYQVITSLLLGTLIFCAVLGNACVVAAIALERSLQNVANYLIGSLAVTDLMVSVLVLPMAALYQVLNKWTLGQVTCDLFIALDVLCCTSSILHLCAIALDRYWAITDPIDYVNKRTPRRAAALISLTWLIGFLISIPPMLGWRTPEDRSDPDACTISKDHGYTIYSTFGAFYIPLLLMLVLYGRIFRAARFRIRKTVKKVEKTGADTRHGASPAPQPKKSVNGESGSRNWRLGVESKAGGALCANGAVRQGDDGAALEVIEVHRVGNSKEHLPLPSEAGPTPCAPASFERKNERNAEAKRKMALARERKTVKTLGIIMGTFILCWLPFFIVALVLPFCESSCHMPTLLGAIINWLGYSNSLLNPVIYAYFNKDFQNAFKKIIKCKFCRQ

[1] = Mouse pharmacokinetic (PK) study, parent compound and psilocin metabolite in plasma; format: in vivo
Description: (§1) Briefly, the procedure was as follows. […] 19, 2022.

[2] = Dosing solution concentration by LC-MS (nominal vs measured); format: physicochemical
Experimental: as §1
Pharmacokinetic (PK) evaluations were performed in the same manner as described in Example 1, except compound C(IV) was used in place of compound C(V). […] Thus, only psilocin PK analysis was performed. […] Table 46 summarizes these “measured” concentrations along with corresponding “nominal” concentrations for each dosing solution. Results for psilocin PK following C(IV) administration are found in Tables 47A-47B (0.293 mg/kg IV dose), Tables 48A-48B (0.275 mg/kg oral dose), Tables 49A-49B (0.789 mg/kg oral dose), Tables 50A-50B (2.52 mg/kg oral dose), Table 51 (comparative summary for IV data), Table 52 (comparative summary for oral data), Table 53A (psilocin exposure) and FIGS. 10H (i) and 10H (ii).

[3] = molecular target: T2, 5-HT2A receptor (5-HT2AR) (Mus musculus, UniProt P35363); test: Drug-induced Head Twitch Response (HTR); format: in vivo; conditions: 1 mg/kg i.p., 15-to-30-minute window post-drug, relative to vehicle
T2 construct: host or cells: C57BL/6 mice, in vivo (neuronal receptor)

[4] = Metabolic stability / psilocin release in serum; format: in vitro ADME; conditions: 10% human AB serum
Description: (§2) A fundamental evaluation in drug development is the assessment of absorption, distribution, metabolism, excretion, and pharmacokinetics (ADME/PK) (Eddershaw et al., 2000, Drug Discovery Today 5(9): 409-414). […] Drug stability upon exposure to human liver microsomes and liver S9 cellular fractions is a common in vitro assay to approximate in vivo, liver-based drug metabolism (Richardson et al., 2016 Drug Metabolism Letters 10:83-90). First-pass metabolism is also often approximated in vitro using intestinal microsome and cellular S9 fractions (Hatley et al., 2017, Biopharmaceuticals & Drug Disposition, 38(2):155-160). […] Supernatants were analyzed for the presence of candidate prodrugs (parent molecule) and psilocin (the predicted metabolite) using Orbitrap LC-MS (Thermo Scientific) using previously described methods (Menéndez-Perdomo et al., 2021, J Mass Spectrom, 56: e4683). […] Assay concentrations (M) of both parent ‘prodrug’ molecule and psilocin metabolite, as quantified through LC-MS using routine standard curve procedures, were plotted as functions of assay time (minutes). The metabolism rate (T1/2) was determined from the metabolism curve plot using the one phase decay feature of GraphPad PRISM software (Version 9.2.0). The quantity of parent prodrug at time zero was set as 100%. […]

[5] = Stability in enzyme-free control buffer; format: in vitro ADME; conditions: 50 mM potassium phosphate buffer pH 7.4
Description: A fundamental evaluation in drug development is the assessment of absorption, distribution, metabolism, excretion, and pharmacokinetics (ADME/PK) (Eddershaw et al., 2000, Drug Discovery Today 5(9): 409-414). […] Drug stability upon exposure to human liver microsomes and liver S9 cellular fractions is a common in vitro assay to approximate in vivo, liver-based drug metabolism (Richardson et al., 2016 Drug Metabolism Letters 10:83-90). First-pass metabolism is also often approximated in vitro using intestinal microsome and cellular S9 fractions (Hatley et al., 2017, Biopharmaceuticals & Drug Disposition, 38(2):155-160). […] Supernatants were analyzed for the presence of candidate prodrugs (parent molecule) and psilocin (the predicted metabolite) using Orbitrap LC-MS (Thermo Scientific) using previously described methods (Menéndez-Perdomo et al., 2021, J Mass Spectrom, 56: e4683). […] Assay concentrations (M) of both parent ‘prodrug’ molecule and psilocin metabolite, as quantified through LC-MS using routine standard curve procedures, were plotted as functions of assay time (minutes). The metabolism rate (T1/2) was determined from the metabolism curve plot using the one phase decay feature of GraphPad PRISM software (Version 9.2.0). The quantity of parent prodrug at time zero was set as 100%.

[6] = Metabolic stability / psilocin release in liver fractions; format: in vitro ADME, human; conditions: HLM and HLS9; 2.5 μM; up to 2 hours
Description: as §2

T2 sequence (P35363 whole entry): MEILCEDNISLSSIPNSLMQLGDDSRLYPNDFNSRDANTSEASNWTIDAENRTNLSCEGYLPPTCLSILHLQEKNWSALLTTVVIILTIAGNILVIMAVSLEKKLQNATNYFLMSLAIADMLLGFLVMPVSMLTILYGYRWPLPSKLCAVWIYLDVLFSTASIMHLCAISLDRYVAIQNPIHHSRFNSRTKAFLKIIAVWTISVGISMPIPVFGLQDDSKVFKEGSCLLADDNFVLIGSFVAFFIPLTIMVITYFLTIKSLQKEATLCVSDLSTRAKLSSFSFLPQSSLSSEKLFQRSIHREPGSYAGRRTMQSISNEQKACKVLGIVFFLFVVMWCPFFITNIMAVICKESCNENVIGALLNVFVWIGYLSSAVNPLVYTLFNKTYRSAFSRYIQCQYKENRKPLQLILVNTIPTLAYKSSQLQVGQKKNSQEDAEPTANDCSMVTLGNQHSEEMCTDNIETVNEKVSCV

## CN(C)CCc1c[nH]c2cccc(OC(=O)CC3CC3)c12 [C(IV)]
5-HT1A receptor
  5-HT1A receptor modulation (reduction of forskolin-induced cAMP): significant receptor modulation
[1]; 0.275 mg/kg oral C(IV), 4 h, individual mice, LLOQ 0.2 ng/mL
  Plasma concentration of psilocin: BLQ
[1]; 0.275 mg/kg oral C(IV), 6 h, individual mice, LLOQ 0.2 ng/mL
  Plasma concentration of psilocin: BLQ
[1]; 0.275 mg/kg oral C(IV), 8 h, individual mice, LLOQ 0.2 ng/mL
  Plasma concentration of psilocin: BLQ
[1]; 0.275 mg/kg oral C(IV), 24 h, individual mice, LLOQ 0.2 ng/mL
  Plasma concentration of psilocin: No Peak
[1]; 0.293 mg/kg i.v. C(IV), 8 h, individual mice, LLOQ 0.2 ng/mL
  Plasma concentration of psilocin: No Peak and BLQ (2×)
[1]; 0.789 mg/kg oral C(IV), 8 h, individual mice, LLOQ 0.2 ng/mL
  Plasma concentration of psilocin: BLQ
[1]; 0.789 mg/kg oral C(IV), 24 h, individual mice, LLOQ 0.2 ng/mL
  Plasma concentration of psilocin: No Peak
[1]; 2.52 mg/kg oral C(IV), 24 h, individual mice, LLOQ 0.2 ng/mL
  Plasma concentration of psilocin: BLQ and No Peak (2×)
[1]; mouse, any animals at any dose (i.v. and oral)
  Detection of parent compound in plasma: not detectable in any animals at any dose
[2]
  Stability in dosing solutions: compound instability in dosing solutions
[3]
  Head Twitch Response (HTR) incidence: Elevated incidences of HTR

## CN(C)CCc1c[nH]c2cccc(OP(=O)(O)O)c12 [psilocybin, reference compound]
[4]
  Metabolic stability and conversion to psilocin in serum: stable in serum with no conversion to psilocin
[5]
  Stability in assay buffer: stability of psilocybin was confirmed in assay buffer
[1]; mouse, 1 mg/kg i.v.
  Detection of parent compound in plasma after i.v. administration: only detectable in i.v. administered animals
[1]; mouse, 1 mg/kg i.v., 0.25 h, individual animals, BLQ = below 0.5 ng/mL (C(V)), 1 mg/kg
  Plasma concentration of parent compound: 3.32 ng/mL and 8.95 ng/mL and 27.2 ng/mL
[1]; mouse, 1 mg/kg i.v., 0.5 h, individual animals, BLQ = below 0.5 ng/mL (C(V)), 1 mg/kg
  Plasma concentration of parent compound: No Peak and 2.35 ng/mL and 6.21 ng/mL
[1]; mouse, 1 mg/kg i.v., 1 h, individual animals, 1 mg/kg
  Plasma concentration of parent compound: No Peak
[1]; mouse, 1 mg/kg i.v., 2 h, individual animals
  Plasma concentration of parent compound: No Peak
[1]; mouse, 1 mg/kg i.v., 4 h, individual animals
  Plasma concentration of parent compound: No Peak
[1]; mouse, 1 mg/kg i.v., 6 h, individual animals
  Plasma concentration of parent compound: No Peak
[1]; mouse, 1 mg/kg i.v., 8 h, individual animals, 1 mg/kg
  Plasma concentration of parent compound: No Peak
[1]; mouse, orally administered, any dose (1, 3, 10 mg/kg)
  Detection of parent compound in plasma after oral administration: not detectable
[1]; mouse, prodrug 1 mg/kg p.o. (psilocybin: 1.56 mg/kg), 24 h, individual animals, BLQ = below 0.2 ng/mL
  Plasma concentration of psilocin: BLQ
[1]; mouse, prodrug 3 mg/kg p.o., 24 h, individual animals, BLQ = below 0.2 ng/mL
  Plasma concentration of psilocin: BLQ
[6]
  Metabolic stability and conversion to psilocin in liver fractions: stable in liver fractions with no conversion to psilocin
